This note sets out measurements from patent US9783510B2, “Small molecule mediated transcriptional induction of E-cadherin” (Vanderbilt University, priority 2014, dated 2017).

The subject of test [1] is HEp3 cells. In words: E-cadherin mRNA, protein and histone marks in HEp3 cells. Format: cell-based, Human. The conditions noted are these: by 6 hours after treatment, compared with Compound 124 treatment. As for the experimental part: To determine if Compound 13 restores E-cadherin in HEp3 cells, the effect of Compound 13 treatment on E-cadherin mRNA expression was tested. Compound 13 induced an 8-fold increase in E-cadherin mRNA by 6 hours after treatment in the […] compared with Compound 124 treatment (FIG. 15C). Not only E-cadherin specific mRNA, but also E-cadherin protein, was induced by Compound 13 treatment (FIG. 15D).
Avian embryos were treated with Compound 124 (266Y) or Compound 13 (259Y) 24 hours after intravenous injection of GFP-expressing HEp3 cells. The formation of metastatic colonies was monitored visually by a fluorescent stereoscope at 50× magnification. Representative images are shown, scale bar=500 μm (15A). Colony diameter was quantified at 6 days post injection. The data represent a total of 30 embryos from two independent experiments: 12 treated with Compound 124 (266Y) and 18 treated with Compound 13 (259Y). […] Each data point on the scatterplot represents the geometric mean diameter of 6-10 colonies analyzed per embryo (15B). Relative E-cadherin mRNA expression in HEp3 cells following 6 hours treatment with either Compound 124 (266Y) or Compound 13 (259Y) is shown (15C). Western blot showing E-cadherin protein re-expression in HEp3 cells following treatment with DMSO, Compound 124 (266Y), or Compound 13 (259Y) for 24 hours is shown (15D). […]

The subject of test [2] is E-cadherin mRNA in SW620inv cells. Description: qPCR of E-cadherin specific mRNA, SW620inv cells. The conditions noted are these: 10 μM, 6 hours post-treatment, relative to DMSO. Format: cell-based.
Test [3] concerns HMEC-1 cells. Description: WST-1 metabolism (proliferation) assay, HMEC-1 cells. The class given is cell-based, human. The conditions noted are these: WST-1, 10 μM, 24 h and 48 h. The protocol: Proliferation, migration, and tubular formation are essential characteristics of endothelial cells for the generation of new blood vessels. […] The lack of effect on cell proliferation is consistent with the lack of effect of compounds of similar class on the proliferation of SW620 and H520 cells (Stoops, S. L., et al. (2011) ACS Chemical Biology 6, 452-465). A scratch wound healing assay was performed on cultured HMEC-1 cells. Confluent monolayers of HMEC-1 cells were disrupted mechanically by scraping them with a sterile pipette tip. Within the observation period of 24 hours, Compound 13 treatment antagonized HMEC-1 monolayer wound healing (FIG. 12).
Referring to FIG. 11, HMEC-1 cells were treated with DMSO or 10 μM Compound 13 (259Y) using 96 wells plate, WST-1 was added (10 μL per well, incubate 37° C. for one hour, read at 450 nm reference 562 nm) at 24 h and 48 h. The blank control was a well with media but NO CELLS+wst-1. Each data point is a biological replicate that is the average of three technical replicates minus the average of three blank wells.

Test [4] has as its system human E-cadherin promoter. Description: E-cadherin promoter luciferase reporter assay in SW620inv cells. The class given is cell-based. The following applies: 10 μM, 24 hours. The protocol: The 1.4 kbp E-cadherin promoter plasmid (E1) and deletion plasmids E2-E8 were a gift from Dr. Eric Fearon at The University of Michigan (Liu, Y. N., et al. (2005) Onocogene 24, 8277-8290). All plasmid constructs were sequenced at the Vanderbilt University Sequencing Core to confirm the E-cadherin promoter fragments using the PCR primers listed in Table I and herein below. Luciferase assays were performed as previously described (Freeman, T. J., et al. (2012) Gastroenterology 142, 562-572).
Compound 13 (259Y) induces>20-fold increases in reporter activation driven by the 1130 bp promoter region in an assay in which an exogenous firefly luciferase gene is driven by defined regions of the human E-cadherin promoter. This region includes consensus binding sequences for several known transcription factors, including AML1, P300, Snail and SP1 (Liu, Y. N., et al. (2005) Oncogene 24, 8277-8290). […]
Referring to FIG. 5, a diagram of the 8 E-cadherin promoter reporter plasmids (full length and truncations) utilized to determine promoter elements critical for promoter activity is shown. […] Fold change is Log2^−ΔΔCp of the normalized fluorescence signal relative to the mean of the DMSO treated group. Statistical significance was calculated using a two-way ANOVA (Holm-Sidak method): ****=p<0.00005, ***=p<0.0005, **=p<0.005, *=p<0.05. […]

Some results are limits rather than exact numbers.

As to `O=C(NCCCNC(=O)c1cccnc1O)c1cc(-c2ccccc2)on1` [Compound 13, N-(3-(2-hydroxynicotinamido)propyl)-5-phenylisoxazole-3-carboxamide], the “increase in E-cadherin mRNA” value in test [1] is recorded as 8 fold. In test [2], the “increase of E-cadherin specific mRNA” value is 27 fold. Besides, in test [3], the HMEC-1 cell proliferation result is on record as “no significant effect”. In test [4] (1130 bp promoter region), this compound came in with a reporter activation above 20 fold. The “reporter activation above control after serial deletion of distal promoter regions” value in test [4] (deletion incl. −492 bp to −330 bp) is above 10 ×.
